Laboratory results reported in patent US20250129033A1, “METAP2 INHIBITORS AND USES THEREOF” (Yissum Research Development Company of the Hebrew …, priority 2022, published 2025).
Entries after “also recorded” stand apart in the source; their conditions may differ.

Assays:
[1] = molecular target: T1, recombinant human methionine aminopeptidase 2 (Homo sapiens, UniProt P50579); assay: Enzymatic activity assay on recombinant human MetAp2 (L-Met-AMC); format: biochemical; conditions: 2.5 μM, over the course of 1 h, vs untreated control
T1 construct: purchased bio-techne 3795-ZN
Description: The enzymatic assay was performed using 5 μg protein per sample as described previously. To test the inhibitory effect of AD-3281, at the same conditions, AD-3281 was also added to 0.33 μg recombinant human methionine aminopeptidase 2 obtained from bio-techne (USA, 3795-ZN), samples were incubated with the inhibitor for 15 min at RT before adding the substrate. The reaction was started by adding 250 μM L-Met-AMC as a substrate. An increase of fluorescence, due to substrate degradation during the enzymatic assay, was measured every 20 seconds for 1 h and 30 min at 37° C. using a plate reader (Wallac 1420 VICTOR plate reader, Perkin-Elmer Life Sciences, USA). The assay was carried out on a 96-well plate on ice and it was performed in an assay buffer (pH 7.5) containing 50 mM HEPES, 0.1 mM CoCl2, 100 mM NaCl and 1 mg/mL PEG 6000, in a final volume of 100 μL.
A375 and MDA-MB-231 were sub-cultivated using trypsin, then centrifuged and counted. […] The protein content of the supernatant was determined according to the Bradford protein assay using BSA as the standard. […] An increase of fluorescence, due to substrate degradation during the enzymatic assay, was measured every 20 seconds for 1 h and 30 min at 37° C. using a plate reader (Wallac 1420 VICTOR plate reader, Perkin-Elmer Life Sciences, USA). […]

[2] = system: HUVECs; assay: HUVEC proliferation assay (MTT); format: cell-based, human; conditions: for reduction in HUVECs proliferation: 72 h, MTT
Description: Human Umbilical Vein Endothelial Cells (HUVECs) or human melanoma cell line (A375) were used to validate the ability of the compound to suppress endothelial cell proliferation. Each 1500 A375 cells/well or 2000 HUVEC cells/well were seeded in a 96 wells plate and allowed to adhere to the plate for few hours. Compounds were then added to the cells at concentration range of 0.05-10 μM (<0.1% DMSO). Cells were then incubated for additional 72 hours and MTT was done (2 to 3 h at 37° C.). The dye was solubilized with DMSO and the absorbance was determined at 570 nm.
(§1) A375 were seeded (2000 cells/well) exposed to TNP-470 and to arrange concentrations of AD-3281 (1-100 μM) cells were incubated for 72 h at 37° C., After incubation, MTT (Sigma Aldrich, St. Louis City, MO, USA) was added (0.5 mg/mL) into each well for viability detection and incubated at 37° C. and 5% CO2 for 40 minutes. The absorbance was measured at 540 nm using a plate reader (Wallac 1420 VICTOR plate reader, Perkin-Elmer Life Sciences, USA). The proliferation of HUVECs was measured under the same conditions. HUVECs were seeded (3000 cells/well) in 96-well plates
To further verify the inhibition activity of encapsulated AD-3281 in PLGA nanoparticles HUVECS and A375 were exposed to different concentrations of nanoparticles equivalent to 50-1000 nM free AD-3281 (0.2-4.16 mg/ml nanoparticles) empty nanoparticles were added as a control. The effect of AD-3281 on HUVECs growth was evaluated after 5 days.
as §1, with “after” for “After”, “plates. […]” for “plates”

[3] = system: HUVECs; assay: Endothelial tube formation assay; format: cell-based, human; conditions: 12 h
Description: To evaluate the angiogenic effect of AD-3281, an endothelial tube formation assay was performed. HUVECs were kept in serum-free Dulbecco's modified Eagle's medium media, collected, seeded in 0.1% gelatin coated 96-well plate and monitored for 12 h using a microscope. Images were taken from 6 separated wells and analyzed using Incucyte® Live-Cell Analysis Systems.

[4] = system: A375 3D multicellular spheroids; assay: A375 3D spheroid viability (WST1); format: cell-based, human; conditions: 50 μM free inhibitor, 96 h
Description: 3D Petri Dish 35-well array (Microtissues Inc., RI, USA) was used to create 2% agarose hydrogel micro-wells. Each well contained 5,000 cells of A375 cells. 30 minutes after seeding, 1 ml of medium was added and templates were incubated at 37° C. for 24 hours. […] The absorbance was measured at 450 nm using a plate reader (Wallac 1420 VICTOR plate reader, Perkin-Elmer Life Sciences, USA).

T1 sequence (P50579 whole entry): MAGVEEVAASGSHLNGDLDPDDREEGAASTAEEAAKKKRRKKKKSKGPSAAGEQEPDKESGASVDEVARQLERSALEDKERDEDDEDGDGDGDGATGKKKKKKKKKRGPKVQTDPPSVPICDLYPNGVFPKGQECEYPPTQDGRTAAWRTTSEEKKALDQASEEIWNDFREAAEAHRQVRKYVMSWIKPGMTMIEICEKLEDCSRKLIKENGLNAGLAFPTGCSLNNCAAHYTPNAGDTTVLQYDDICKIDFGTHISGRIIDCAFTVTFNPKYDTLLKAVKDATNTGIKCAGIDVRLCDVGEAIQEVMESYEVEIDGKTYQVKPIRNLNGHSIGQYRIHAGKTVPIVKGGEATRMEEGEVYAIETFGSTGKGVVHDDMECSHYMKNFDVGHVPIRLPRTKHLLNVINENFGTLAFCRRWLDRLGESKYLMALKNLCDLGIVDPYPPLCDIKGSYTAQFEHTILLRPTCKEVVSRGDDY

- inhibition of rhMetAp2 enzymatic activity [1]: 95%
Compound: COC1C(OC(=O)CC23CC4CC(CC(C4)C2)C3)CCC2(CO2)C1C1(C)OC1CC=C(C)C (stereo not shown) [AD-3281, Fumagillol-1-adamantylacetate]
- suppression of endothelial cell proliferation (ranking among compounds) [2]: most active
- reduction in HUVECs proliferation ([2]; 1 μM): 40%
- reduction in HUVECs proliferation ([2]; 10 μM): 50%
- HUVEC tube formation ([3]; 50 μM): narrower tubes compared with untreated control but without preventing network formation
- HUVEC tube formation ([3]; 100 μM): impaired tubes; also recorded: prevent tube formation
- effect of free inhibitor on spheroids viability [4]: did not show a significant reduction; also recorded: slight reduction of spheroids viability
